Data reported in PubChem BioAssay (NCI).
Several values for one entry are separate records, joined by “and”; a condition that tells them apart may be missing. Equal entries are not always repeated.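 Tested at 5 concentrations; 48 h exposure; 96-well plates; endpoints linearly interpolated, else capped at highest concentration. Here, GI50 denotes the concentration required for 50% inhibition of growth. TGI: concentration producing complete growth inhibition.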

What was measured:
Assay in all cases: DTP human tumour cell line panel, 48 h
DMS 114 small cell lung = test system: DMS 114 small cell lung
CCRF-CEM leukemia = test system: CCRF-CEM leukemia
HT29 colon = test system: HT29 colon
UACC-62 melanoma = test system: UACC-62 melanoma
SK-MEL-28 melanoma = test system: SK-MEL-28 melanoma
DMS 273 small cell lung = test system: DMS 273 small cell lung
MOLT-4 leukemia = test system: MOLT-4 leukemia
MDA-MB-435 = test system: MDA-MB-435
MCF7 breast = test system: MCF7 breast
UACC-257 melanoma = test system: UACC-257 melanoma

| Compound | GI50 (DMS 114 small cell lung) | TGI (DMS 114 small cell lung) | GI50 (CCRF-CEM leukemia) | TGI (CCRF-CEM leukemia) | GI50 (HT29 colon) | TGI (HT29 colon) | GI50 (UACC-62 melanoma) | GI50 (SK-MEL-28 melanoma) | TGI (SK-MEL-28 melanoma) | GI50 (DMS 273 small cell lung) | TGI (DMS 273 small cell lung) | GI50 (MOLT-4 leukemia) | TGI (MDA-MB-435) | TGI (MCF7 breast) | GI50 (UACC-257 melanoma) | TGI (UACC-257 melanoma) | TGI (UACC-62 melanoma) | TGI (MOLT-4 leukemia) | GI50 (MDA-MB-435) |
| --- | --- | --- | --- | --- | --- | --- | --- | --- | --- | --- | --- | --- | --- | --- | --- | --- | --- | --- | --- |
| CC[C@H]1CN2CCc3cc(OC)c(OC)cc3[C@@H]2C[C@@H]1C[C@H]1NCCc2c1[nH]c1ccc(O)cc21 | 0.0047 µM and 0.0133 µM | 0.0184 µM and 0.0571 µM | 0.0129 µM and 0.0207 µM | 0.239 µM and 0.054 µM and 0.326 µM | 0.0271 µM and 0.0332 µM | 0.0862 µM and 0.341 µM and 0.11 µM | 0.0249 µM and 0.0448 µM | 0.0316 µM and 0.0425 µM | 0.0813 µM and 0.256 µM and 0.41 µM | 0.0261 µM | 0.084 µM and 0.024 µM | 0.0117 µM and 0.0272 µM | 0.261 µM | 0.137 µM | 0.223 µM and 0.212 µM | 0.666 µM and 0.69 µM and 0.643 µM | – | – | – |
| O=C(O)CC(NC(=O)CP(=O)(O)O)C(=O)O (centres undefined) | – | > 10000 µM | – | > 10000 µM | – | > 10000 µM | – | 389 µM | > 10000 µM | – | > 9020 µM | – | > 10000 µM | > 10000 µM | 3150 µM | > 10000 µM | 6640 µM | 6910 µM | 48.8 µM |
